The values below come from patent US9562035B2, “Benzamide derivative useful as FASN inhibitors for the treatment of cancer” (Janssen Pharmaceutica NV, priority 2013, dated 2017).

Test [1] deals with T1, hFASN enzyme (full length) (Homo sapiens, UniProt P49327).
T1 construct: 10 μL hFASN enzyme (full length, 300 ng, purified in house); made in house
The test can be described thus: Fatty Acid Synthase (FASN) Inhibition Scintillation Proximity Assay. It counts as biochemical. Particulars: for IC50: mean where tested more than once, ~ = standard error of pIC50 larger than 0.5; for inhibition at 10 µM: read-out: FASN % Effect @1E−05M. An outline of the steps: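 Purified full-length human FASN (300 ng) incubated 60 min at room temperature with NADPH, [3H]-acetyl-CoA and malonyl-CoA in 100 mM KH2PO4 pH 7.5, 1 mM DTT; compound at 30 μM to 0.01 μM. [3H]-palmitate captured by SPA imaging beads; IC50 from 4-parameter fit, reported as pIC50.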

Test [2] concerns the target T2, FASN Keto-reductase Domain (Homo sapiens, UniProt P49327).
T2 construct: 10 μL hFASN enzyme (full length, 300 ng, purified in house) and 360 μM NADPH; made in house
The test can be described thus: Fatty Acid Synthase Keto-Reductase Domain (FASN KR) Inhibition. In kind it is biochemical. Particulars: mean where tested more than once; read-out: FASN K-R Domain pIC50 (converted). An outline of the steps: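 Full-length human FASN (300 ng) in 100 mM KH2PO4 pH 7.5 with 360 μM NADPH and 180 mM ethyl acetoacetate (stock); A340 decrease read over 20 min at room temperature.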

Test [3] concerns A2780 ovarian cells. Description: A2780 Ovarian Cell Proliferation Assay in Lipid Reduced Medium, without Palmitate. In kind it is cell-based. Conditions: Homo sapiens, A2780; lipid reduced medium, without palmitate, 96 h, MTT; read-out: Proliferation A2780 w/o Palmitate pIC50 (converted). An outline of the steps: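 A2780 cells were seeded in 10% FCS medium and switched next day to 10% lipid-reduced serum without palmitate. Compounds at 0.01–30 μM were added with 0.2% DMSO, 0.2% fatty-acid-free BSA and 0.25% ethanol final. After 96 h, MTT absorbance at 544 nm was normalized to plate controls, and IC50/pIC50 came from a 4-parameter logistic fit.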

Test [4] concerns A2780 ovarian cells. Description: A2780 Ovarian Cell Proliferation Assay in Lipid Reduced Medium, with Palmitate (control). It counts as cell-based. Conditions: Homo sapiens, A2780; lipid reduced medium, 25 μM palmitate, 96 h, MTT; read-out: Proliferation A2780 with Palmitate pIC50 (converted). An outline of the steps: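 A2780 cells were seeded in RPMI1640 with 10% FCS, then switched next day to medium with 10% lipid-reduced serum. Compound was added with final 25 μM palmitate, 0.2% fatty-acid-free BSA and 0.2% DMSO, and incubated 96 h at 37 °C. Read-out was MTT absorbance at 544 nm; pIC50 = −log(IC50) from curve fit.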

T1 sequence (P49327 whole entry): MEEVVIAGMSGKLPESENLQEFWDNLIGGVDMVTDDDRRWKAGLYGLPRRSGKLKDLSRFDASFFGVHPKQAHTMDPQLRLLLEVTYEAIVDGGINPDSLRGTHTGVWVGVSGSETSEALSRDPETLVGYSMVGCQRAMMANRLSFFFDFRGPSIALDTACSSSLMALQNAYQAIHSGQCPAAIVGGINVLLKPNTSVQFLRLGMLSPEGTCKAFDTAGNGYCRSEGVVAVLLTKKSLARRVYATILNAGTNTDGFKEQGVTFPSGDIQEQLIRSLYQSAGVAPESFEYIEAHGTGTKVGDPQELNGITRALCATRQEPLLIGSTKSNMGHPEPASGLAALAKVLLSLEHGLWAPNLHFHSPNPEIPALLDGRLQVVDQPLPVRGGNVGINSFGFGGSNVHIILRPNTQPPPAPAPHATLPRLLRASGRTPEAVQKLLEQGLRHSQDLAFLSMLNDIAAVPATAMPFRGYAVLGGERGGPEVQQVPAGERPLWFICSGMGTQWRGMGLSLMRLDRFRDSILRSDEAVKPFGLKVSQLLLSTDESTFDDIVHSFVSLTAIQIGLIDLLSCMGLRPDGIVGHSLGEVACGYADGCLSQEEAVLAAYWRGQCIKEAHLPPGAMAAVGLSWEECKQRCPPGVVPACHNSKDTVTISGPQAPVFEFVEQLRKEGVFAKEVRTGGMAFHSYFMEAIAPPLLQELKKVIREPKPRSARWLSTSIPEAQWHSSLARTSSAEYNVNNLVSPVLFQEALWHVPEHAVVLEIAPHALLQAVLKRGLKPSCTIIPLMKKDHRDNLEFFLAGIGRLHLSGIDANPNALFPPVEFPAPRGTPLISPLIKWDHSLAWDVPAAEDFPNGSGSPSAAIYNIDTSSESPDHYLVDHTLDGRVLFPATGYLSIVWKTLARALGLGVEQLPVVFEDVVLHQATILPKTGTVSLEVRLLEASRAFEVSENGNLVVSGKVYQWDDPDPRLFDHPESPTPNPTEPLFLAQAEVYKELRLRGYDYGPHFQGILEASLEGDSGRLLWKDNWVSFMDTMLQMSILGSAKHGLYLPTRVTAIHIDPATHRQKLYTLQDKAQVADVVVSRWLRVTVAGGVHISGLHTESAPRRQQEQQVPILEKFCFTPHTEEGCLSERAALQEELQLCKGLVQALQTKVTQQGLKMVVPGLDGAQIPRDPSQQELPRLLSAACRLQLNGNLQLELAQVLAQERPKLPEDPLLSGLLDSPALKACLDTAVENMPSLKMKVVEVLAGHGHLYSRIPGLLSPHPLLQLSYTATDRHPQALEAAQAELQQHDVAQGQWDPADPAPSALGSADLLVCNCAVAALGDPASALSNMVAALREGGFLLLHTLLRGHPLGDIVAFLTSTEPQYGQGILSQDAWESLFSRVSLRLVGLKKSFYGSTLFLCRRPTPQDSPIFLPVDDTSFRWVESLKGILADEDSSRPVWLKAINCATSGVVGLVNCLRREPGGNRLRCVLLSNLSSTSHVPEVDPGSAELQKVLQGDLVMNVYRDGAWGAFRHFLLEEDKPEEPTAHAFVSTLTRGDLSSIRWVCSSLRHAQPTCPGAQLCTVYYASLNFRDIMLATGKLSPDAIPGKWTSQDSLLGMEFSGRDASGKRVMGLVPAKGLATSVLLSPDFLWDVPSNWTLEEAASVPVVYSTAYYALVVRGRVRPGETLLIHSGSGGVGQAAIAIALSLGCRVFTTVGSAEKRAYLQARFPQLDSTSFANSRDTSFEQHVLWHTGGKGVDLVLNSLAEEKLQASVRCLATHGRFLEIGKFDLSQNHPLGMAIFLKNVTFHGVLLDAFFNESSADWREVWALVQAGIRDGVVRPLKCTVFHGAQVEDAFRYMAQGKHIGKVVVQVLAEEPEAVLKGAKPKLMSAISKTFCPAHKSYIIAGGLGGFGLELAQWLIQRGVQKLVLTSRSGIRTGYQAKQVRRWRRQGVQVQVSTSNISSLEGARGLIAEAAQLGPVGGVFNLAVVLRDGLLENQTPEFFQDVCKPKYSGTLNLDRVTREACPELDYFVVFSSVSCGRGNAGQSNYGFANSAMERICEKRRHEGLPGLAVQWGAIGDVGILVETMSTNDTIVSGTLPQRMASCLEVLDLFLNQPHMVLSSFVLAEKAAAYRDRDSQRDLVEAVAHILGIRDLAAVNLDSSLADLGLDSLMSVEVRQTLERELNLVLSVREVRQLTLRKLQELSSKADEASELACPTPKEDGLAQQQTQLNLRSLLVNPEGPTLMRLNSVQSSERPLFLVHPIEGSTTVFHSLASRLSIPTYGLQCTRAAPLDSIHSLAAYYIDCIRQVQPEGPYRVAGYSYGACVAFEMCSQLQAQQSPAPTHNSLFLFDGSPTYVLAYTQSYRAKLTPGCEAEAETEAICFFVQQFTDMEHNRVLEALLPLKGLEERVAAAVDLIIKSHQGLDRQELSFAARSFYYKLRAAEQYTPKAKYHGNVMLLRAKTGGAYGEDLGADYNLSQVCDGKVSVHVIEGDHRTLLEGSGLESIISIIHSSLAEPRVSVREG
T2 sequence (P49327 whole entry, the tested form may be a part): as the sequence (P49327 whole entry) above

As for `CC(C)Nc1ccc(C(=O)Nc2cc(C(=O)N3CCC(c4ccc(-c5cnn(C)c5)cc4)CC3)ccc2OCc2ccccc2)cn1` [Compound 271, N-(2-(benzyloxy)-5-(4-(4-(1-methyl-1H-pyrazol-4-yl)phenyl)piperidine-1-carbonyl)phenyl)-6-(isopropylamino)nicotinamide], the IC50 is 100 nM in test [1], 537 nM in test [2], 490 nM with A2780 ovarian cells [3] and over 10000 nM in the test with A2780 ovarian cells [4]. Besides, in test [1], the inhibition at 10 µM stood at 101%.

Take `Cc1ccc(C(=O)N2CCC(c3ccc(-c4cnn(C)c4)cc3)CC2)cc1NC(=O)c1ccncc1F` [Compound 161, 3-fluoro-N-(2-methyl-5-(4-(4-(1-methyl-1H-pyrazol-4-yl)phenyl)piperidine-1-carbonyl)phenyl)isonicotinamide]: the IC50 in test [1] was 21.4 nM; in test [2], 38.9 nM; in the test with A2780 ovarian cells [3], 24 nM; in the test with A2780 ovarian cells [4], 3720 nM. Further, in test [1], the inhibition at 10 µM was 101%.

As for `Cc1ccc(C(=O)N2CCC(c3ccc(-c4cnn(C5CC5)c4)cc3)CC2)cc1NC(=O)c1ccc(NC(C)C)nc1` [Compound 254, N-(5-(4-(4-(1-cyclopropyl-1H-pyrazol-4-yl)phenyl)piperidine-1-carbonyl)-2-methylphenyl)-6-(isopropylamino)nicotinamide], the IC50 in test [1] was 42.7 nM; in test [2], 53.7 nM; in the test with A2780 ovarian cells [3], 18.2 nM; in the test with A2780 ovarian cells [4], about 10000 nM. In addition, the inhibition at 10 µM in test [1] is 103%.

For the molecule `CC(C)Nc1ccc(C(=O)Nc2cc(C(=O)N3CCC(c4ccc(-c5cnn(C)c5)cc4)CC3)ccc2Cl)cn1` [Compound 69, N-(2-chloro-5-(4-(4-(1-methyl-1H-pyrazol-4-yl)phenyl)piperidine-1-carbonyl)phenyl)-6-(isopropylamino)nicotinamide], the IC50 in test [1] is 28.8 nM; in test [2] it was 41.7 nM; in the test with A2780 ovarian cells [3], 75.9 nM; in the test with A2780 ovarian cells [4], 7590 nM. Besides, the inhibition at 10 µM in test [1] amounted to 98%.

In the case of `Cc1ccc(C(=O)N2CCC(c3ccc(-c4cnn(CCO)c4)cc3)CC2)cc1NC(=O)c1ccc(NC(C)C)nc1` [Compound 267, N-(5-(4-(4-(1-(2-hydroxyethyl)-1H-pyrazol-4-yl)phenyl)piperidine-1-carbonyl)-2-methylphenyl)-6-(isopropylamino)nicotinamide], the IC50 in test [1] was 25.7 nM; in test [2], 58.9 nM; in the test with A2780 ovarian cells [3], about 22.4 nM; with A2780 ovarian cells [4] it was over 10000 nM. Also, the inhibition at 10 µM in test [1] was 112%.

As to `Cc1ccc(C(=O)N2CC(c3ccc(-c4cnn(C)c4)cc3)C2)cc1NC(=O)C1CCC1` [Compound 143, N-(2-methyl-5-(3-(4-(1-methyl-1H-pyrazol-4-yl)phenyl)azetidine-1-carbonyl)phenyl)cyclobutanecarboxamide], the IC50 in test [1] is 44.7 nM; in test [2], 170 nM; with A2780 ovarian cells [3], 302 nM; with A2780 ovarian cells [4] it was over 10000 nM. Further, the inhibition at 10 µM in test [1] stood at 114%.

On to `Cc1ccc(C(=O)N2CCC(c3ccc(-c4ccsc4)cc3)CC2)cc1NC(=O)c1ccc(NC(C)C)nc1` [Compound 223, 6-(isopropylamino)-N-(2-methyl-5-(4-(4-(thiophen-3-yl)phenyl)piperidine-1-carbonyl)phenyl)nicotinamide], for which the IC50 in test [1] was 69.2 nM; in test [2], 141 nM; in the test on A2780 ovarian cells [3], 148 nM; in the test on A2780 ovarian cells [4], 2040 nM. Moreover, the inhibition at 10 µM in test [1] is 102%.

For `CCN1CCC(C(=O)Nc2cc(C(=O)N3CCC(c4ccc(-c5cnn(C)c5)cc4)CC3)ccc2C)C1` (stereo not shown) [Compound 185, 1-ethyl-N-(2-methyl-5-(4-(4-(1-methyl-1H-pyrazol-4-yl)phenyl)piperidine-1-carbonyl)phenyl)pyrrolidine-3-carboxamide], the IC50 is 251 nM in test [1], 501 nM in test [2], about 501 nM with A2780 ovarian cells [3] and over 10000 nM in the test on A2780 ovarian cells [4]. Moreover, in test [1], the inhibition at 10 µM came to 101%.

For the molecule `COc1cccc(C(=O)Nc2cc(C(=O)N3CCC(c4ccc(-c5cnn(C)c5)cc4)CC3)ccc2C)c1` [Compound 94, 3-methoxy-N-(2-methyl-5-(4-(4-(1-methyl-1H-pyrazol-4-yl)phenyl)piperidine-1-carbonyl)phenyl)benzamide], the IC50 was 20.4 nM in test [1], 83.2 nM in test [2], 148 nM in the test on A2780 ovarian cells [3] and 7590 nM with A2780 ovarian cells [4]. Also, the inhibition at 10 µM in test [1] turned out to be 100%.

For `Cc1ccc(C(=O)N2CCC(c3ccc(-c4cnn(C)c4)cc3)C2)cc1NC(=O)c1ccc(NC(C)C)nc1` (stereo not shown) [Compound 237, 6-(isopropylamino)-N-(2-methyl-5-(3-(4-(1-methyl-1H-pyrazol-4-yl)phenyl)pyrrolidine-1-carbonyl)phenyl)nicotinamide], the IC50 in test [1] was 129 nM; in test [2] it was 380 nM; in the test with A2780 ovarian cells [3] it was 166 nM; in the test on A2780 ovarian cells [4], over 10000 nM. Besides, the inhibition at 10 µM in test [1] was 101%.

With `Cc1ccc(C(=O)N2CC(c3ccc(-c4cnn(C)c4)cc3)C2)cc1NC(=O)c1ccc(Cl)nc1` [Compound 4, 6-chloro-N-(2-methyl-5-(3-(4-(1-methyl-1H-pyrazol-4-yl)phenyl)azetidine-1-carbonyl)phenyl)nicotinamide], the IC50 in test [1] is 39.8 nM; in test [2] it was 97.7 nM; in the test on A2780 ovarian cells [3] it was 174 nM; in the test with A2780 ovarian cells [4], over 10000 nM. In addition, the inhibition at 10 µM in test [1] worked out at 109%.

On to `Cc1ccc(C(=O)N2CCC(c3ccc(-c4cnn(C)c4)cc3)CC2)cc1NC(=O)c1cnc(N2CCOCC2)nc1` [Compound 152, N-(2-methyl-5-(4-(4-(1-methyl-1H-pyrazol-4-yl)phenyl)piperidine-1-carbonyl)phenyl)-2-morpholinopyrimidine-5-carboxamide], for which the IC50 in test [1] was 21.9 nM; in test [2], 17.4 nM; in the test on A2780 ovarian cells [3], 12.3 nM; in the test with A2780 ovarian cells [4] it was 7240 nM. For the same molecule, in test [1], the inhibition at 10 µM was found to be 106%.

With `Cc1ccc(C(=O)N2CCC(c3ccc(-c4cnn(C)c4)cc3)CC2)cc1NC(=O)C1CCN(C2CCCC2)CC1` [Compound 180, 1-cyclopentyl-N-(2-methyl-5-(4-(4-(1-methyl-1H-pyrazol-4-yl)phenyl)piperidine-1-carbonyl)phenyl)piperidine-4-carboxamide], the IC50 in test [1] is 25.1 nM; in test [2], 40.7 nM; in the test on A2780 ovarian cells [3], 16.6 nM; in the test on A2780 ovarian cells [4], over 10000 nM. In test [1], the inhibition at 10 µM was determined as 104%.

As to `CC(C)Nc1ccc(C(=O)Nc2cc(C(=O)N3CCC(c4ccc(-c5ccnc6ccccc56)cc4)CC3)ccc2Cl)cn1` [Compound 68, N-(2-chloro-5-(4-(4-(quinolin-4-yl)phenyl)piperidine-1-carbonyl)phenyl)-6-(isopropylamino)nicotinamide], the IC50 in test [1] was 31.6 nM; in test [2], 64.6 nM; with A2780 ovarian cells [3] it was 195 nM; with A2780 ovarian cells [4] it was 5250 nM. Besides, the inhibition at 10 µM in test [1] is 118%.

For the molecule `CCCCN1CC(C(=O)Nc2cc(C(=O)N3CCC(c4ccc(-c5cnn(C)c5)cc4)CC3)ccc2C)C1` [Compound 242, 1-butyl-N-(2-methyl-5-(4-(4-(1-methyl-1H-pyrazol-4-yl)phenyl)piperidine-1-carbonyl)phenyl)azetidine-3-carboxamide], the IC50 in test [1] was 72.4 nM; in test [2], 158 nM; in the test with A2780 ovarian cells [3], 95.5 nM; in the test on A2780 ovarian cells [4] it was over 10000 nM. For the same molecule, the inhibition at 10 µM in test [1] was found to be 105%.

With `Cc1ccc(C(=O)N2CCC(c3ccc(-c4cnn(C)c4C)cc3)CC2)cc1NC(=O)c1ccc(NC(C)C)nc1` [Compound 246, N-(5-(4-(4-(1,5-dimethyl-1H-pyrazol-4-yl)phenyl)piperidine-1-carbonyl)-2-methylphenyl)-6-(isopropylamino)nicotinamide], the IC50 was 53.7 nM in test [1], 245 nM in test [2], 112 nM in the test with A2780 ovarian cells [3] and 8320 nM with A2780 ovarian cells [4]. Further, in test [1], the inhibition at 10 µM was found to be 110%.

With `CCCCCCN1CC(C(=O)Nc2cc(C(=O)N3CCC(c4ccc(-c5cnn(C)c5)cc4)CC3)ccc2C)C1` [Compound 243, 1-hexyl-N-(2-methyl-5-(4-(4-(1-methyl-1H-pyrazol-4-yl)phenyl)piperidine-1-carbonyl)phenyl)azetidine-3-carboxamide], the IC50 in test [1] is 129 nM; in test [2], 186 nM; in the test on A2780 ovarian cells [3], 240 nM; in the test with A2780 ovarian cells [4], 7080 nM. The inhibition at 10 µM in test [1] came out at 105%.
